We go through four compounds from US6258839A, “Isolation of naturally occuring isoflavanone and some clinical uses thereof” (priority 1997, dated 2001).

One data set concerns DPS/Y181C. Briefly: activity against HIV mutants: DPS/Y181C. In kind it is cell-based, HIV-1.
For a further data set, the system named is TiBO/A98G, V1081. The data set can be described thus: activity against HIV mutants: TiBO/A98G, V1081. In kind it is cell-based, HIV-1. Conditions: Human immunodeficiency virus 1.
For a further data set, the system named is HEPT/P236L. Briefly: activity against HIV mutants: HEPT/P236L. Conditions: Human immunodeficiency virus 1. In kind it is cell-based, HIV-1.
Data set [1] has as its system HIV-1 attachment to cells (CEM-SS, PBMC's). Briefly: virus attachment assay, p24 based. In kind it is cell-based.
In the next data set the test system is HIV-1 AZT^res. Briefly: in vitro anti-HIV activity, AZT resistant HIV-1. It counts as cell-based. Conditions: Human immunodeficiency virus 1.
The subject of data set [2] is HIV. The data set can be described thus: combination studies with AZT. It counts as cell-based.
Another data set concerns U1 latent infection. The data set can be described thus: U1/TNF differential latent infection, XTT and p24.
The nature of data set [3]: U1/TNF differential latent infection, XTT and p24. The following applies: human, u1 cells. For orientation: Tetrazolium dyes change colour on reduction, which living cells bring about.
The nature of another data set: hollow fibre studies. It counts as in vivo. Conditions: intraperitoneally; preliminary.
In the next data set the test system is CEM-SS. Briefly: growth inhibition of uninfected host cells in anti-HIV screen. Conditions: Homo sapiens.
In a further data set the test system is HIV-11118. Briefly: in vitro anti-HIV activity, HIV-11118. It counts as cell-based, HIV-1.
For a further data set, the target named is BSA (Bos taurus, UniProt P02769). Briefly: interaction with BSA by fluorescence spectroscopy. In kind it is binding, bovine. Conditions: PMZ-1 in the μM range.
BSA, sequence (P02769 25-607): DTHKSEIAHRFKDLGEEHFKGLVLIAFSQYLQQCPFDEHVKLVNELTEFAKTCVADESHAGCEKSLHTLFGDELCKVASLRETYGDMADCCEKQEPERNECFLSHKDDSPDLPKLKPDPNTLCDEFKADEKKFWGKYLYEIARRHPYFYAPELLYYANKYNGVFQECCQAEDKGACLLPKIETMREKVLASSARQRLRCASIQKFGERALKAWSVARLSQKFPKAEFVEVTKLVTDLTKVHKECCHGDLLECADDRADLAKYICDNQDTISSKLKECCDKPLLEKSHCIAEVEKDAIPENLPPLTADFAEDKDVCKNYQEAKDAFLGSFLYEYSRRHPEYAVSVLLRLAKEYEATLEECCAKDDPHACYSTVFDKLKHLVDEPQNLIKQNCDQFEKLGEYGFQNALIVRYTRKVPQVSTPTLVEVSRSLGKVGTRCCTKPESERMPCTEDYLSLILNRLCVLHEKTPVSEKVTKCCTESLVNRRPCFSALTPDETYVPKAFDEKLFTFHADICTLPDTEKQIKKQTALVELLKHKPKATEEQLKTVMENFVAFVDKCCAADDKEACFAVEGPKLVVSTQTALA
Data set [4] has as its system HIV in fresh human peripheral blood mononuclear cells (PBMC's). Briefly: in vitro anti-HIV activity in fresh human PBMC's. In kind it is cell-based, HIV-1. The following applies: Human immunodeficiency virus 1, PBMC.
The target of a further data set is integrase (Human immunodeficiency virus type 1 group M subtype B, UniProt P04585). Briefly: integrase enzymatic activity. It counts as biochemical, HIV.
A further data set has as its system CALO/V901, P225S. Briefly: microbe, parasite or virus in culture. In kind it is cell-based, HIV-1. The following applies: Human immunodeficiency virus 1.
For the next data set, the system named is breast cancer. The data set can be described thus: NCI 60 cell line panel, breast cancer. It counts as cell-based.
The next data set relates to HIV-2. Briefly: activity against HIV-2. In kind it is cell-based.
The next data set has as its system SIV MAC. The data set can be described thus: in vitro antiviral activity, SIV. It counts as cell-based.
Data set [5] deals with mutant viruses containing reverse transcriptase domain at codons 181, 139 and 100. Briefly: activity against three other mutant viruses. It counts as cell-based, HIV.
A further data set in a line: solubility studies. In kind it is physicochemical. The method, then: It is very soluble in propylene glycol (PG), polyethylene glycol (PEG) 400 and soybean oil. These solvents may be useful in formulating cosolvents suitable for pharmaceutical applications. The ethanolic solutions has UV absorptions in the 290-300 nm range, useful for analytical work. Aqueous solutions for analytical work were prepared in HPCD and diluted with water to the required concentrations. The stock solutions were stable when incubated for 48 hours at 37° C. and when stored at room temperature.

Data set [6] concerns HIV. Briefly: HIV activity of co-isolated compounds. It counts as cell-based.
The subject of data set [7] is HIV-1 infected cells (p24 production). The data set can be described thus: extended time course assay, p24 and XTT. Conditions: addition to culture after infection.

One may read the EC50 as the concentration that produces a half-maximal response. As usually defined, the IC50 is the concentration at which inhibition is half-maximal. Read a high IC50 as weaker potency. `COc1c(O)cc(C2COc3cc(O)cc(O)c3C2=O)cc1CC=C(C)C` (racemic) [PMZ-1]: the EC50 in the data set with DPS/Y181C (Human immunodeficiency virus 1, DPS/Y181C) is 1.39 µM; in the data set on DPS/Y181C (Human immunodeficiency virus 1, mutant Y181), roughly 1 µM; in the data set with TiBO/A98G, V1081, greater than 5 µM; with HEPT/P236L it was greater than 5 µM; in the data set with HIV-1 AZT^res, 0.16 µM; in the data set on HIV-11118 (Human immunodeficiency virus 1, HIV-1IIIB, NCI AIDS anti-viral screen), 0.2 µM. The EC50 in the data set with HIV-11118 (Human immunodeficiency virus 1, HIV-11118) is 0.058 µM; in data set [4] (PMBC's) it was 0.6 µM; in [4] (fresh human PBMC's) it was less than 1 µM; in the data set with CALO/V901, P225S, 0.1 µM. Also, the “effect on attachment of virons to cells” value in data set [1] is recorded as “no effect”. In addition, the “HIV-1 Attachment to CEM-SS cells” value in data set [1] (at 100 μM, CEM-SS cells) was “No inhibition”. The “anti-viral combination effect with AZT” value with HIV [2] is reported as “anti-viral synergistic effects”. Moreover, the “U1/TNF differential latent infection XTT: toxic concentration” value with U1 latent infection (XTT) was no more than 3.16 µM. The “U1/TNF differential latent infection p24 production” value with U1 latent infection (p24) is “no inhibition of p24 production”. This compound yielded an MNTC in data set [3] of 1000 nM. Further, in the data set “hollow fibre studies”, the “activity in hollow fibre studies” value is on record as “active”. Further, the IC50 was determined as 38 µM in the data set with CEM-SS; 42 µM with CEM-SS (cell growth, HIV-1 AZT^res test); 35 µM with CEM-SS (cell growth, HIV-1 AZT^sen test); 42 µM with CEM-SS (cell growth, HIV-1 DPS test); 60 µM in the data set with CEM-SS (cell growth, HIV-1 N119 test); 20 µM with CEM-SS (cell growth, HIV-1RF test). For the same compound, the IC50 in the data set on CEM-SS (cell growth, HIV-1 ROD test) was 28 µM; with CEM-SS (cell growth, HIV-11118 test), 46 µM; with CEM-SS (cell growth, SIV MAC test), 35 µM; against integrase, 40 µM. Further, the “quenching of fluorescence of BSA” value at BSA is listed as “concentration dependent quenching”. The “activity against breast cancer” value with breast cancer is “good activity”. For the same compound, in the data set with HIV-2, the “activity against HIV-2” value is “weak activity”. Also, in the data set with SIV MAC, the “activity against SIV” value is “weak activity”. Also, the “activity against three other mutant viruses” value in data set [5] is on record as “some activity”. Besides, the “solubility in 40% HPCD” value in “solubility studies” (40% hydroxypropyl beta-cyclodextrin) is given as “soluble”. The compound also showed a solubility in ethanol in the data set “solubility studies” (ethanol) greater than 1000 µg/mL. In the data set “solubility studies” (propylene glycol, polyethylene glycol 400, soybean oil), the “solubility in PG, PEG 400 and soybean oil” value is given as “very soluble”. In addition, the solubility in water entry in the data set “solubility studies” (water) is on record as “poorly soluble”.

For the compound `CC(C)=CCc1c(O)cc(O)c2c1OC(c1ccc(O)c(O)c1)CC2=O` (stereo not drawn) [4382-39-1], the HIV activity result in the data set with HIV [6] was “devoid of HIV activity”.

Consider `CC(C)=CCc1cc(C2COc3cc(O)cc(O)c3C2=O)cc(O)c1O` (stereo not drawn) [4382-39-2], for which the HIV activity entry with HIV [6] is reported as “devoid of HIV activity”.

Take `Cc1ccnc2c1NC(=O)c1cccnc1N2C1CC1` [nevirapine, reference compound]: in [7], the “time after infection within which addition is effective” value was no more than 8 h.
